Data on 77 molecules can be found in PubChem BioAssay AID1963597 (National Center for Advancing Translational Sciences (NCATS), 2024).

This data set deals with human liver microsomes, metabolic stability half-life. The data set can be described thus: NCATS Human Liver Microsomal (HLM) Stability Profiling. Conditions: higher = more stable; screened at 1 µM (by protocol). The source says: Assay submitter (PI): Dr. Pranav Shah
NIH Center for Advancing Translational Sciences
Pharmacokinetic issues were the leading cause of drug attrition, accounting for approximately 40% of all cases before the turn of the century. To this end, several high-throughput in vitro assays like microsomal stability have been developed to evaluate the pharmacokinetic profiles of compounds in early stages of drug discovery. At NCATS, a single-point rat liver microsomal (RLM) stability assay is used as a Tier I assay, while human liver microsomal (HLM) stability is employed as a Tier II assay. While it is beneficial to have compound libraries screened for HLM stability, the increasing magnitude of hits routinely generated, and the time- and re-source-intensive nature of the assay makes it important to find alternatives. One strategy is to rely on in silico models that have been developed using data generated from these assays. Herein, we describe the development of an HLM stability prediction model using our in-house dataset of ~7,000 compounds, employing both traditional and advanced machine learning methods. Additionally, the strong correlation between our RLM and HLM data was further reinforced by the fact that our HLM model performance improved after adding RLM stability predictions as an input descriptor. […] The best model along with a subset of our dataset has been made publicly accessible on the NCATS@ADME website for the benefit of the greater drug discovery community.
Microsomal Stability Assay
The substrate depletion method, also called the in vitro t1/2 method was used to analyze test compounds. Incubation and liquid handling were carried out using a previously described method (Shah et al., 2016). Briefly, each reaction mixture (110 µL) consisted of a test article (1 µM), human liver microsomes (0.5 mg/mL), and NADPH regenerating system in phosphate buffer at pH 7.4. Samples were incubated in 384-well plates at 37 degrees C for 0, 5, 10, 15, 30 and 60 min. At each time point, 10 µL of the incubation mixture was aspirated into another 384-well plate which contained cold acetonitrile (ACN) with internal standard (albendazole). All plates were centrifuged at 3000 rpm for 20 min at 4 degrees C, and the supernatants were transferred to a 384-well injection plate. Sample quantification and analysis was performed using a previously described method (Shah et al., 2016, Siramshetty et al., 2020).
1: Shah, P. et al. An Automated High-Throughput Metabolic Stability Assay Using an Integrated High-Resolution Accurate Mass Method and Automated Data Analysis Software. Drug Metab Dispos 44, 1653-1661 (2016).
2: Siramshetty et al. Retrospective assessment of rat liver microsomal stability at NCATS: data and QSAR models. Sci Rep 26;10(1):20713 (2020).

Consider `CCC(C)(C)c1ccc(CC(C)CN2C[C@@H](C)O[C@@H](C)C2)cc1` (some centres not stated), for which the half-life worked out at 12.2 min.

`CN1C(=O)C(Cc2ccc3ccccc3c2)N=C(c2ccc(O)cc2)c2cc(Cl)ccc21` (configuration not stated) gave a half-life above 120 min.

The molecule `COC(=O)[C@H](Cc1cccc(C(=N)N)c1)[C@@H](C)NC(=O)c1ccc(-c2cc[n+]([O-])cc2)cc1` yielded a half-life above 120 min. In turn, `CN(C)Cc1c(C(=O)NCCOc2ccc(C(=O)NO)cc2)oc2ccccc12` returned a half-life above 120 min. `NC(=Nc1ccc(CCNCc2cccc(Cl)c2)cc1)c1cccs1` yielded a half-life above 120 min.

`Cc1nc2c3ccccc3nc(NNC(=O)CCC(=O)N3CCN(c4ccc(F)cc4)CC3)n2n1` registered a half-life of 40.4 min. For the molecule `CC(C)(C)c1ccc(C(=O)Nc2cc(Cl)c(Br)cc2C(=O)O)cc1`, the half-life is 6.17 min.

On to `COc1ccc(-c2oc3ncn4nc(COc5c(C)cccc5C)nc4c3c2-c2ccc(OC)cc2)cc1`, for which the half-life came out at 13.2 min. Take `CCc1cc2cc(OC)c(OC)cc2c(Cc2ccccc2)n1`: the half-life was found to be 8.36 min. Turning to `CN(C)[C@@H]1C(=O)C(C(N)=O)=C(O)[C@@]2(O)C(=O)C3=C(O)c4c(O)cccc4C[C@H]3C[C@@H]12`, the half-life was above 120 min. With `CC1CC(C)(C)N(C(=O)CN2C(=O)c3ccccc3C2=O)c2ccccc21` (configuration not stated), the half-life amounted to 8.38 min. The molecule `O=C(O)c1ccc2[nH]cc(CCCCN3CC=C(c4ccccc4)CC3)c2c1` had a half-life above 120 min. Take `COCC(C)N(C(=O)CCl)c1c(C)csc1C` (configuration not stated): the half-life worked out at 10.9 min. `O=C(Nc1nnc(-c2ccc3c(c2)OCCO3)o1)C1CCCCC1` gave a half-life of 0.57 min. `O=[N+]([O-])c1cccc(S(=O)(=O)NCCNS(=O)(=O)c2cccc([N+](=O)[O-])c2)c1` displayed a half-life of 52.3 min. The figure for `CC(C)(C)Nc1nc(Nc2ccc(C(N)=O)cc2)cc(N)c1C#N` is above 120 min; for `FC(F)(F)c1ccccc1-c1cc(C(F)(F)F)c2nc(C3=NOC4(CCCCC4)C3)[nH]c2c1` it is 67.7 min; for `COc1cccc(OC)c1-c1nc(C(=O)N[C@@H](CC(C)C)C(=O)O)cn1-c1ccnc2cc(Cl)ccc12` it is above 120 min. `O=C(O)c1ccc(CN2CCC(CN[C@@H]3C[C@H]3c3ccccc3)CC2)cc1` yielded a half-life above 120 min. In turn, `COc1cc(O)cc(O)c1` displayed a half-life above 120 min. The result for `CNc1cccc(CCOc2ccc3c(c2)CN(CC(F)(F)F)C(=O)[C@H](CC(=O)O)C3)n1` reads above 120 min; that for `OC1(c2ccc(Cl)cc2)c2ccccc2C2=NCCN21` (configuration not stated), 74.4 min. In turn, `CCC1CCCCN1CC(=O)N1CCCc2c1c(=O)oc1ccc(OCc3ccccc3)cc21` (configuration not stated) yielded a half-life of 0.54 min. `Cc1ccccc1C(=O)Nc1ccc(C(=O)N2CCCC(O)c3cc(Cl)ccc32)c(C)c1` (configuration not stated) showed a half-life of 13.9 min. Molecule `CC1(COc2ccc3c(c2)ncn3-c2ccc3cccc(N4CCC(N)CC4)c3n2)COC1` returned a half-life of 75.4 min. The figure for `CC(C)CCC(=O)CC1c2ccccc2C(=O)N1c1ccc2ccc(Cl)nc2n1` (configuration not stated) is 7.76 min; for `Cc1cccc(N(C)C(=S)Oc2ccc3ccccc3c2)c1` it is 2.99 min.

`O=c1cc(OCc2ccc(F)cc2)ccn1-c1ccc(OCCN2CCCC2)cc1`: the half-life is above 120 min. With `OCCCNc1cc(-c2ccnc(Nc3cccc(Cl)c3)n2)ccn1`, the half-life came out at 24.5 min. For `CN(C)c1cc2c(cc1Sc1nc3c(N)nccc3n1CCNCC(C)(C)C)OCO2`, the half-life was determined as 3.18 min.

On to `O=C(c1ccccn1)N(Cc1cccs1)C1(C(=O)NC2CCCCC2)CCCCC1`, for which the half-life came to 1.6 min. Turning to `COc1ccc(OCC(=O)Nc2cc(-c3nc4ccccc4s3)ccc2C)cc1`, the half-life is 3.38 min. As for `O=C(O)c1ccc[n+]([O-])c1`, the half-life was 106 min.

Regarding `CCN(CC)Cc1ccc(C(=O)N(CCc2ccccc2OC)[C@@H]2CCNC2)cc1`, the half-life was above 120 min. `C=CCc1ccccc1OCC(O)CNC(C)C` (configuration not stated) gave a half-life of 22 min.

The molecule `CCCCCOc1cc2c(cc1-c1cc(/C=C/C(=O)O)ccc1O)C(C)(C)CCC2(C)C` returned a half-life of 10.8 min. The result for `O=C(Nc1ncc(-c2cc(C(F)F)nn2-c2c(Cl)cccc2Cl)s1)C1CC1` reads above 120 min; that for `COc1ccc2nc([C@H]3CCN(Cc4ccc(C(=O)O)cc4)C3)[nH]c2c1`, above 120 min; that for `Cc1cc2c(F)c(Oc3ncnn4cc(OCC(C)O)c(C)c34)ccc2[nH]1` (configuration not stated), above 120 min.

`COc1ccc(-c2nc3ccccc3c(=O)n2Cc2ccco2)cc1COc1ccc(NC(C)=O)cc1` returned a half-life of 1.85 min. The molecule `Cc1nc2c(C(F)(F)F)cccc2nc1-c1ccc(-c2cccc(S(C)(=O)=O)c2)cc1` had a half-life above 120 min. The result for `Cc1cccc(NC(=O)Nc2cccs2)c1C` reads 10.2 min. In the case of `CCn1c(-c2nonc2N)nc2c(C#CCO)ncc(OCCCN)c21`, the half-life was above 120 min. As to `CC(=O)Nc1nnc(S(N)(=O)=O)s1`, the half-life is above 120 min. The result for `CCOc1ccc(NC(=O)N2CCN(c3ccc(Cl)c(Cl)c3)CC2)cc1` reads above 120 min. On to `Cc1ccc2nc(-c3cc(NC(=O)c4ccc5c(c4)OCCO5)ccc3Cl)oc2c1`, for which the half-life came to 63.3 min. On to `CC(=O)N1CCN(c2ccc(O)cc2)CC1`, for which the half-life is above 120 min. In turn, `O=c1c2cccnc2n(-c2cccc([N+](=O)[O-])c2)c(=O)n1Cc1ccncc1` displayed a half-life of 24.5 min. With `CCOc1cc(CC(=O)N[C@@H](CC(C)C)c2ccccc2N2CCCCC2)ccc1C(=O)O`, the half-life was determined as 44.3 min.

`O=C(OCC(O)CO)c1ccccc1Nc1ccnc2c(C(F)(F)F)cccc12` (configuration not stated) gave a half-life of 34.6 min. With `CC1(C#N)CCN(c2c(C(=O)N3CCN(C(=O)N4CCCC4)CC3)cnc3c(F)cc(F)cc23)CC1`, the half-life was determined as 27.2 min.

Turning to `CC(C)(C)c1ccc(-c2nc(SCC(=O)Nc3ccc(Cl)cc3)[nH]c(=O)c2C#N)cc1`, the half-life was determined as 19.2 min. The figure for `COc1ccc(C2Sc3ccccc3N(CCN(C)C)C(=O)C2OC(C)=O)cc1` (configuration not stated) is 68.1 min; for `CC(=O)Nc1ccc(OC[C@@H](O)CNC(C)C)cc1` it is above 120 min.

`CN(C(=O)c1ccc(F)cc1C(F)(F)F)C1CCN(c2nnc(-c3ccnn3C)c3ccccc23)CC1` yielded a half-life of 30.3 min. The figure for `Cc1cccc(C(=O)O)c1O` is above 120 min; for `c1ccc(N2CCN(CCc3nn[nH]n3)CC2)cc1` it is above 120 min; for `Clc1ccc(C(Cn2ccnc2)OCc2ccc(Sc3ccccc3)cc2)c(Cl)c1` (configuration not stated) it is 54.1 min.

`OCCN1CCN(CCCN2c3ccccc3C=Cc3ccccc32)CC1` had a half-life above 120 min. With `CCCn1cnc2c1c(=O)n(CCCCC(C)=O)c(=O)n2C`, the half-life is above 120 min.

`NC(=O)c1ccccc1Nc1ccnc(Nc2cccc(O)c2)n1` returned a half-life of 21.8 min. Take `Cc1cc(-c2ncc(CC(=O)Nc3ccc(-c4cnccn4)cn3)cc2C)ccn1`: the half-life was determined as 36.4 min. In the case of `Cc1ccccc1C(=O)Nc1cccc(-c2nc3cccnc3s2)c1`, the half-life is 6.57 min. `O=S(c1cc(Cl)cc(Cl)c1O)c1cc(Cl)cc(Cl)c1O` showed a half-life of 99.8 min.

For `O=C(Nc1cccc(-c2nc3ccccc3o2)c1)c1ccccc1Cl`, the half-life is 9.1 min. Take `CCOc1cc(NC(C)=O)ccc1C(=O)OC`: the half-life worked out at 6.75 min. On to `C=CC(=O)N1CCN(C(=O)CNc2cc(-c3ccccc3Cl)c(Cl)cc2OC)CC1`, for which the half-life was 9.86 min. The figure for `O=C(O)c1ccc2c(c1)nc(Nc1cccc(Cl)c1)c1ccncc12` is 82.5 min. With `O=C(Cn1cnc2onc(-c3ccc(F)cc3)c2c1=O)Nc1cccc(C(F)(F)F)c1`, the half-life turned out to be 40.4 min.

Molecule `COc1ccc(C)cc1Nc1c2c(nc3ccccc13)CCC2` yielded a half-life of 29.9 min. As for `CC1(C)O[C@H]2CC(=O)OC[C@]23[C@H]2CC[C@@]4(C)[C@H](c5ccoc5)OC(=O)[C@H]5O[C@]54[C@]2(C)C(=O)C[C@@H]13`, the half-life was determined as 13.4 min. Turning to `O=C1NC(=Nc2ccccc2F)S/C1=C\c1ccc(C(=O)O)cc1`, the half-life is 52.4 min. The figure for `c1cncc(CN2CCC(n3ncc4c(N5CCOCC5)nc(-c5ccc6[nH]ccc6c5)nc43)CC2)c1` is 14.9 min; for `CC(Cc1ccccc1)(NC(=O)CN)c1ccccc1` (configuration not stated) it is above 120 min; for `O=C(O)c1cccc(-c2noc(-c3ccccc3F)n2)c1` it is above 120 min. For the molecule `CCC(CC)n1ccc2c(C(=O)NCc3c(C)cc(C)[nH]c3=O)cc(C#N)cc21`, the half-life worked out at 3.94 min. The result for `CC1(c2ccccc2)N(Cc2ccccc2)C(=O)OC12CCN(Cc1cccc(C#N)c1)CC2` (configuration not stated) reads 2.04 min.
